This data set in a line: solubility in water. The class given is physicochemical. Particulars: pH 2. The text has this:
Examples of such active ingredients are, for example, Biopharmaceutics Classification System (BCS) Class IV drug substances that are characterized by low solubility and low permeability (see “Waiver of in vivo bioavailability and bioequivalence studies for immediate-release solid oral dosage forms based on a biopharmaceutics classification system”, U.S. Department of Health and Human Services, Food and Drug Administration, Center for Drug Evaluation and Research (CDER), August 2000). It will be recognized that aqueous solubility of many compounds is pH-dependent; in the case of such compounds the solubility of interest herein is at a physiologically relevant pH, for example a pH of about 1 to about 8.

SMILES strings stand for the structures.

Turning to `CC1(C)CCC(c2ccc(Cl)cc2)=C(CN2CCN(c3ccc(C(=O)NS(=O)(=O)c4ccc(N[C@H](CCN5CCOCC5)CSc5ccccc5)c(S(=O)(=O)C(F)(F)F)c4)cc3)CC2)C1` [ABT-263], the solubility in water result is given as “less than 4 μg/ml”.

The record behind these values is patent US20100311751A1, “SOLID DISPERSIONS CONTAINING AN APOPTOSIS-PROMOTING AGENT” (ABBOTT LABORATORIES, priority 2009, published 2010).
